Values of other authors as cited in article PMC12525602, “Identification of Selective α-Glucosidase Inhibitors via Virtual Screening with Machine Learning” (Molecules, 2025).

Test system: α-glucosidase
Details: 300-compound dataset of reported inhibitors and ineffective compounds, Table S4; cited from earlier work
For `COc1ccc(S(=O)(=O)NNC(=O)c2cc3cc(F)ccc3[nH]2)cc1OC` [compound 3, FC1=CC=C(NC(C(NNS(=O)(C2=CC(OC)=C(OC)C=C2)=O)=O)=C3)C3=C1], the “activity (label in modeling dataset)” value is given as 0. For `COc1cc(-c2oc3cc(O)cc(O)c3c(=O)c2O[C@@H]2O[C@H](CO[C@@H]3O[C@@H](C)[C@H](O)[C@@H](O)[C@H]3O)[C@@H](O)[C@H](O)[C@H]2O)ccc1O` [compound 2, C[C@H]1[C@H](O)[C@@H](O)[C@@H](O)[C@H](OC[C@@H]2[C@@H](O)[C@H](O)[C@@H](O)[C@H](OC3=C(C4=CC(OC)=C(O)C=C4)OC5=CC(O)=CC(O)=C5C3=O)O2)O1], the “activity (label in modeling dataset)” value is given as 0.

Same assay, conditions: Table S5 modeling dataset; activity label 1 = active, 0 = inactive; cited from earlier work
For `N#Cc1c(-c2ccncc2)cc(-c2ccc(Cl)cc2)c(C#N)c1N` [compound 113], the activity is given as 0. For `N#Cc1ccc2[nH]c(-c3nnc(Nc4ccccc4Cl)s3)cc2c1` [compound 125], the activity is listed as 0. In the case of `Fc1ccc(CSc2nnc(COc3cccc4cccnc34)o2)cc1` [compound 128], the activity is listed as 0. For `CC1CCN(c2ccc(/C=N/Nc3nc(-c4ccccc4)cs3)cc2)CC1` [compound 112], the activity is listed as 0. In the case of `Brc1ccc(CSc2nnc(COc3cccc4cccnc34)o2)cc1` [compound 107], the activity is given as 0. For `COc1cccc(C(=O)C2C(O)c3ccccc3S(=O)(=O)N2CC(=O)Nc2cccc(Br)c2)c1` (centres unmarked) [compound 118], the activity is listed as 0. For `O=C(c1ccccc1)c1ccc2nc(-c3ccc(Cl)cc3Cl)[nH]c2c1` [compound 110], the activity is listed as 0. For `COC(=O)/C=C/c1ccc(O)c(OC)c1` [compound 127], the activity is listed as 0. In the case of `O=C(NNS(=O)(=O)c1ccc([N+](=O)[O-])cc1)c1cc2cc(F)ccc2[nH]1` [compound 109], the activity is given as 0. In the case of `COc1cccc(C(=O)C2C(O)c3ccccc3S(=O)(=O)N2CC(=O)Nc2ccc([N+](=O)[O-])cc2)c1` (centres unmarked) [compound 101], the activity is given as 0. For `C[C@@H]1O[C@@H](Oc2c(-c3ccc(O)cc3)oc3cc(O)cc(O)c3c2=O)[C@H](O)[C@H](O)[C@H]1O` [compound 117], the activity is given as 0.

Same assay, conditions: activity label in the 300-compound modeling dataset (Table S5); 1 = active, 0 = inactive; cited from earlier work
In the case of `Oc1c(Cl)cc(Cl)cc1-c1nnc(/N=C(/CSc2nnc3c(n2)[nH]c2ccccc23)c2ccc(-c3ccccc3)cc2)s1` [compound 221], the activity is given as 1. In the case of `COc1ccc(Br)cc1-c1nnc(/N=C(/CSc2nnc3c(n2)[nH]c2ccccc23)c2ccc(C)cc2)s1` [compound 189], the activity is listed as 1. For `O=C(O)/C=C/c1ccc(O)cc1` [compound 195], the activity is listed as 1. In the case of `O=C(NNS(=O)(=O)c1ccc(F)cc1)c1cc2cc(F)ccc2[nH]1` [compound 207], the activity is given as 1. For `CCCCCCCCCCCCCCCC(N)=O` [compound 188], the activity is given as 1.

Same assay, conditions: activity label of the 300-compound modeling dataset, Table S5; cited from earlier work
For `O=C(/C=C/c1ccc(O)c(O)c1)c1cccc2[nH]c(=O)oc12` [compound 274], the activity is listed as 1. In the case of `O=C(/C=C/c1ccc(O)c(F)c1)c1cccc2[nH]c(=O)oc12` [compound 246], the activity is listed as 1. For `Oc1cc(O)cc(-c2cc3cccc(Br)c3o2)c1` [compound 232], the activity is listed as 1. In the case of `Cc1ccc(/C(CSc2nnc3c(n2)[nH]c2ccccc23)=N\c2nnc(-c3ccc(Cl)c(Cl)c3)s2)cc1` [compound 277], the activity is given as 1. In the case of `O=C(/C=C/c1cc(F)c(O)c(F)c1)c1cccc2[nH]c(=O)oc12` [compound 245], the activity is given as 1. In the case of `Cn1ccnc1SC(=O)c1ccc(-c2ccccc2F)o1` [compound 272], the activity is given as 1. For `COc1ccccc1/C(CSc1nnc2c(n1)[nH]c1ccccc12)=N\c1nnc(-c2ccc(Cl)c(Cl)c2)s1` [compound 243], the activity is given as 1. For `O=C(N/N=C/C1CC(=O)c2ccccc2O1)c1ccc(O)cc1` (centres unmarked) [compound 250], the activity is given as 1. In the case of `Brc1cccc(CNc2cccc(-c3nc4ccccc4[nH]3)c2)n1` [compound 265], the activity is given as 1. For `O=C(/C=C/c1ccc(Cl)cc1)c1cc2ccccc2oc1=O` [compound 273], the activity is listed as 1.

Same assay, conditions: activity label of the modeling dataset (Table S5), α-glucosidase; 1 = active, 0 = inactive; cited from earlier work
For `N#Cc1c(-c2ccc(-c3ccccc3)cc2)cc(-c2ccc([N+](=O)[O-])cc2)c(C#N)c1N` [compound 10], the activity is given as 0. For `COc1cccc(Nc2nnc(-c3cc4cc(C#N)ccc4[nH]3)s2)c1` [compound 43], the activity is given as 0. For `CC1CCN(c2ccc(/C=N/Nc3nc(-c4ccc(C#N)cc4)cs3)cc2)CC1` [compound 22], the activity is given as 0. For `N#Cc1c(-c2ccc([N+](=O)[O-])cc2)cc(-c2cccc([N+](=O)[O-])c2)c(C#N)c1N` [compound 32], the activity is given as 0. For `N#Cc1c(-c2ccncc2)cc(-c2ccc([N+](=O)[O-])cc2)c(C#N)c1N` [compound 18], the activity is given as 0. In the case of `Cc1ccc(-c2cc(-c3cccnc3)c(C#N)c(N)c2C#N)cc1` [compound 6], the activity is listed as 0. In the case of `COc1ccc(S(=O)(=O)NNC(=O)c2cc3cc(F)ccc3[nH]2)cc1OC` [compound 3, FC1=CC=C(NC(C(NNS(=O)(C2=CC(OC)=C(OC)C=C2)=O)=O)=C3)C3=C1], the activity is listed as 0. For `COc1cc(-c2oc3cc(O)cc(O)c3c(=O)c2O[C@@H]2O[C@H](CO[C@@H]3O[C@@H](C)[C@H](O)[C@@H](O)[C@H]3O)[C@@H](O)[C@H](O)[C@H]2O)ccc1O` [compound 2, C[C@H]1[C@H](O)[C@@H](O)[C@@H](O)[C@H](OC[C@@H]2[C@@H](O)[C@H](O)[C@@H](O)[C@H](OC3=C(C4=CC(OC)=C(O)C=C4)OC5=CC(O)=CC(O)=C5C3=O)O2)O1], the activity is listed as 0. For `Clc1cccc(Cn2cc(CSc3nnc(COc4cccc5cccnc45)o3)nn2)c1` [compound 16], the activity is listed as 0.

Same assay, conditions: activity label of the modeling dataset, Table S5 (1 = active, 0 = inactive); cited from earlier work
For `CC(C)=CCSc1nnc(COc2cccc3cccnc23)o1` [compound 86], the activity is listed as 0. For `N#Cc1c(-c2ccc([N+](=O)[O-])cc2)cc(-c2cccnc2)c(C#N)c1N` [compound 75], the activity is listed as 0. For `CCCCCSc1nnc(COc2cccc3cccnc23)o1` [compound 55], the activity is listed as 0. For `CC1CCN(c2ccc(/C=N/Nc3nc(-c4ccc(O)c(O)c4)cs3)cc2)CC1` [compound 79], the activity is listed as 0. In the case of `Clc1cccc(Cl)c1-n1cc(CSc2nnc(COc3cccc4cccnc34)o2)nn1` [compound 71], the activity is listed as 0. For `O=[N+]([O-])c1ccc(-n2cc(CSc3nnc(COc4cccc5cccnc45)o3)nn2)cc1` [compound 72], the activity is listed as 0. For `CC(C)CCC(=O)C1(O)C(O)=C(C(=O)CC(C)C)C(=O)C1CCC(C)C` (centres unmarked) [compound 66], the activity is given as 0. In the case of `CCCCCCCCCCCCN` [compound 44], the activity is given as 0. For `O=C(NNS(=O)(=O)c1cccc2ncccc12)c1cc2cc(F)ccc2[nH]1` [compound 90], the activity is listed as 0. For `Fc1cccc(CSc2nnc(COc3cccc4cccnc34)o2)c1` [compound 47], the activity is listed as 0. In the case of `CCCCCCn1cc(CSc2nnc(COc3cccc4cccnc34)o2)nn1` [compound 77], the activity is listed as 0. In the case of `Fc1ccc(CSc2nnc(COc3cccc4cccnc34)o2)cc1F` [compound 80], the activity is listed as 0. In the case of `CCCCCCSc1nnc(COc2cccc3cccnc23)o1` [compound 51], the activity is listed as 0.

Same assay, conditions: activity label of the modeling dataset, Table S5; cited from earlier work
For `COc1cc(/C=C(\C(=O)O)c2cc(/C=C/C(=O)O)cc(OC)c2O)ccc1O` [compound 166], the activity is listed as 1. For `Brc1cc(-c2ccccc2)ccc1/C(CSc1nnc2c(n1)[nH]c1ccccc12)=N\c1nnc(-c2ccc3ccccc3c2)s1` [compound 152], the activity is listed as 1. For `Cc1ccccc1Cn1cc(COc2ccc(/C=N/N=C3\C(=O)N(c4ccc(Br)cc4)c4ccccc43)cc2)nn1` [compound 146], the activity is listed as 0. For `COc1cc(/C=C(\Oc2ccc(/C=C/C(=O)O)cc2OC)C(=O)O)ccc1O` [compound 157], the activity is given as 1. For `CCCCCCCCCCCCCC(=O)O` [compound 141], the activity is given as 0. For `N#Cc1ccc2[nH]c(-c3nnc(Nc4cccc([N+](=O)[O-])c4)s3)cc2c1` [compound 154], the activity is given as 1.

Same assay, conditions: activity label of the modeling dataset, sheet Table S5; 1 = active, 0 = inactive; cited from earlier work
In the case of `O=c1c(O)c(-c2ccc(O)c(O)c2)oc2cc(O)cc(O)c12` [compound 289], the activity is listed as 1. In the case of `CCOC(=O)c1c(SCC(=O)Nc2ccccc2)nnc(-c2ccccc2)c1-c1ccccc1` [compound 292], the activity is listed as 1. In the case of `Clc1ccc(-c2cnc3ccccc3n2)c(Cl)c1` [compound 283], the activity is given as 1.
